Reference: patent US12528814B2, “Bifunctional degraders of interleukin-1 receptor-associated kinases and therapeutic use thereof” (NURIX THERAPEUTICS, INC., priority 2020, dated 2026)

Assays:
[1] = target: T1, IRAK4 (Homo sapiens (Human), UniProt Q9NWZ3); experiment: IRAK4 Degradation HiBiT Assay; conditions: multiple runs, HiBiT-tagged Jurkat cells, 4 hrs; for Dmax: Jurkat, read-out: Cellular IRAK4 HiBiT: Dmax, Table 5; for DC50: read-out: Cellular IRAK4 HiBiT: DC50, Table 5
Target sequence in this assay (Q9NWZ3 whole entry): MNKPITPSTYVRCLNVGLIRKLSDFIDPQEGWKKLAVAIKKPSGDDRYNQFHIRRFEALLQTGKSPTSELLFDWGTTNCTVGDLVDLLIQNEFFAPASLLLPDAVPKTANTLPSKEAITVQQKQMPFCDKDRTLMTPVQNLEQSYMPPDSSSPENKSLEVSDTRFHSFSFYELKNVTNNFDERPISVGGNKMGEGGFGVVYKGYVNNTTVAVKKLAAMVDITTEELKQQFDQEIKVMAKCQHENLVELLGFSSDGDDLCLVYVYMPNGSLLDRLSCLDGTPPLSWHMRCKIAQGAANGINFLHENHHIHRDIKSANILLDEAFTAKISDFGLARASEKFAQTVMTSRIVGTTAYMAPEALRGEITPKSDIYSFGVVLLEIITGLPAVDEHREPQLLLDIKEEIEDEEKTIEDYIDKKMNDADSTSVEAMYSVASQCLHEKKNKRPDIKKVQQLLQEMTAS

[2] = target: T1, IRAK4; experiment: IRAK4 Biochemical HTRF Kinase Assay; conditions: Table 5; multiple runs; read-out: IRAK4 HTRF biochemical: IC50
Procedure, shortened: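 IC50 values derive from non-linear regression of sixteen concentrations in duplicate. Kinase reaction ran 90 min at ambient temperature after adding 5 μM STK-S1 substrate, 10 mM ATP and 10 mM MgCl2 (reaction-solution levels, pre-dilution to 10 μl); phospho-peptide detected by HTRF after 60 min.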
Target sequence in this assay (Q9NWZ3 whole entry, species assumed): as the sequence (Q9NWZ3 whole entry) above

Cc1ncsc1-c1ccc(CNC(=O)[C@@H]2C[C@@H](O)CN2C(=O)[C@@H](NC(=O)C2(F)CC2)C(C)(C)C)c(OCC(=O)N2CCC(C(=O)N3CCN(c4nnc(-c5cnc(-c6ccc7cc(C#N)cnn67)cc5NC(C)C)s4)CC3)CC2)c1 [Example 80, (2S,4R)—N-(2-(2-(4-(4-(5-(6-(3-cyanopyrrolo[1,2-b]pyridazin-7-yl)-4-(isopropylamino)pyridin-3-yl)-1,3,4-thiadiazol-2-yl)piperazine-1-carbonyl)piperidin-1-yl)-2-oxoethoxy)-4-(4-methylthiazol-5-yl)benzyl)-1-((S)-2-(1-fluorocyclopropane-1-carboxamido)-3,3-dimethylbutanoyl)-4-hydroxypyrrolidine-2-carboxamide]
Dmax [1]: 115%
DC50 [1]: 313 nM
IC50 [2]: 3.7 nM

CC(C)Nc1cc(-c2ccc3cc(C#N)cnn23)ncc1-c1nnc(N2CCC3(CCN(Cc4ccc5c(c4)C(=O)N(C4CCC(=O)NC4=O)C5=O)CC3)CC2)s1 (centres unmarked) [Example 81, 7-(5-(5-(9-((2-(2,6-dioxopiperidin-3-yl)-1,3-dioxoisoindolin-5-yl)methyl)-3,9-diazaspiro[5.5]undecan-3-yl)-1,3,4-thiadiazol-2-yl)-4-(isopropylamino)pyridin-2-yl)pyrrolo[1,2-b]pyridazine-3-carbonitrile]
Dmax [1]: 81%
DC50 [1]: 64.9 nM
IC50 [2]: 1.8 nM

CC(C)Nc1cc(-c2ccc3cc(C#N)cnn23)ncc1-c1nnc(N2CCC3(CCN(C(=O)CNc4cccc5c4C(=O)N(C4CCC(=O)NC4=O)C5=O)CC3)CC2)s1 (centres unmarked) [Example 82, 7-(5-(5-(9-((2-(2,6-dioxopiperidin-3-yl)-1,3-dioxoisoindolin-4-yl)glycyl)-3,9-diazaspiro[5.5]undecan-3-yl)-1,3,4-thiadiazol-2-yl)-4-(isopropylamino)pyridin-2-yl)pyrrolo[1,2-b]pyridazine-3-carbonitrile]
Dmax [1]: 61%
DC50 [1]: 72.8 nM
IC50 [2]: 3.1 nM

Cc1ncsc1-c1ccc(CNC(=O)[C@@H]2C[C@@H](O)CN2C(=O)[C@@H](NC(=O)C2(F)CC2)C(C)(C)C)c(OCC(=O)N2CCC3(CC2)CCN(c2nnc(-c4cnc(-c5ccc6cc(C#N)cnn56)cc4NC(C)C)s2)CC3)c1 [Example 83, (2S,4R)—N-(2-(2-(9-(5-(6-(3-cyanopyrrolo[1,2-b]pyridazin-7-yl)-4-(isopropylamino)pyridin-3-yl)-1,3,4-thiadiazol-2-yl)-3,9-diazaspiro[5.5]undecan-3-yl)-2-oxoethoxy)-4-(4-methylthiazol-5-yl)benzyl)-1-((S)-2-(1-fluorocyclopropane-1-carboxamido)-3,3-dimethylbutanoyl)-4-hydroxypyrrolidine-2-carboxamide]
Dmax [1]: 109%
DC50 [1]: 319 nM
IC50 [2]: 6.8 nM

Cc1ncsc1-c1ccc(CNC(=O)[C@@H]2C[C@@H](O)CN2C(=O)[C@@H](NC(=O)C2(F)CC2)C(C)(C)C)c(OCC(=O)N2CCC(CN3CCN(c4nnc(-c5cnc(-c6ccc7cc(C#N)cnn67)cc5NC(C)C)s4)CC3)CC2)c1 [Example 84, (2S,4R)—N-(2-(2-(4-((4-(5-(6-(3-cyanopyrrolo[1,2-b]pyridazin-7-yl)-4-(isopropylamino)pyridin-3-yl)-1,3,4-thiadiazol-2-yl)piperazin-1-yl)methyl)piperidin-1-yl)-2-oxoethoxy)-4-(4-methylthiazol-5-yl)benzyl)-1-((S)-2-(1-fluorocyclopropane-1-carboxamido)-3,3-dimethylbutanoyl)-4-hydroxypyrrolidine-2-carboxamide]
Dmax [1]: 115%
DC50 [1]: 247 nM
IC50 [2]: 5.5 nM

CC(C)Nc1cc(-c2ccc3cc(C#N)cnn23)ncc1-c1nnc(N2CCN(CC3CCN(Cc4ccc5c(c4)C(=O)N(C4CCC(=O)NC4=O)C5=O)CC3)CC2)s1 (centres unmarked) [Example 85, 7-(5-(5-(4-((1-((2-(2,6-dioxopiperidin-3-yl)-1,3-dioxoisoindolin-5-yl)methyl)piperidin-4-yl)methyl)piperazin-1-yl)-1,3,4-thiadiazol-2-yl)-4-(isopropylamino)pyridin-2-yl)pyrrolo[1,2-b]pyridazine-3-carbonitrile]
DC50 [1]: > 970 nM
IC50 [2]: 2.1 nM

CNc1cc(-c2ccc3cc(C#N)cnn23)ncc1-c1nnc(N2CCN(C(=O)C3CCN(Cc4ccc5c(c4)C(=O)N(C4CCC(=O)NC4=O)C5=O)CC3)CC2)s1 (centres unmarked) [Example 86, 7-(5-(5-(4-(1-((2-(2,6-dioxopiperidin-3-yl)-1,3-dioxoisoindolin-5-yl)methyl)piperidine-4-carbonyl)piperazin-1-yl)-1,3,4-thiadiazol-2-yl)-4-(methylamino)pyridin-2-yl)pyrrolo[1,2-b]pyridazine-3-carbonitrile]
Dmax [1]: 105%
DC50 [1]: 18.5 nM
IC50 [2]: 1.1 nM

CC(C)Nc1cc(-c2ccc3cc(C#N)cnn23)ncc1-c1nnc(N2CCC3(CCN(C(=O)c4ccc5c(c4)C(=O)N(C4CCC(=O)NC4=O)C5)CC3)CC2)s1 (centres unmarked) [Example 87, 7-(5-(5-(9-(2-(2,6-dioxopiperidin-3-yl)-3-oxoisoindoline-5-carbonyl)-3,9-diazaspiro[5.5]undecan-3-yl)-1,3,4-thiadiazol-2-yl)-4-(isopropylamino)pyridin-2-yl)pyrrolo[1,2-b]pyridazine-3-carbonitrile]
Dmax [1]: 70%
DC50 [1]: 15.8 nM
IC50 [2]: 2.4 nM

CNc1cc(-c2ccc3cc(C#N)cnn23)ncc1-c1nnc(N2CCN(C(=O)C[C@@H]3CCCN(c4cccc5c4C(=O)N(C4CCC(=O)NC4=O)C5=O)C3)CC2)s1 (stereo partly drawn) [Example 88, 7-(5-(5-(4-(2-((3S)-1-(2-(2,6-dioxopiperidin-3-yl)-1,3-dioxoisoindolin-4-yl)piperidin-3-yl)acetyl)piperazin-1-yl)-1,3,4-thiadiazol-2-yl)-4-(methylamino)pyridin-2-yl)pyrrolo[1,2-b]pyridazine-3-carbonitrile]
DC50 [1]: > 3330 nM
IC50 [2]: 1.4 nM

CNc1cc(-c2ccc3cc(C#N)cnn23)ncc1-c1nnc(N2CCN(C(=O)C3CCN(c4cccc5c4C(=O)N(C4CCC(=O)NC4=O)C5=O)CC3)CC2)s1 (centres unmarked) [Example 89, 7-(5-(5-(4-(1-(2-(2,6-dioxopiperidin-3-yl)-1,3-dioxoisoindolin-4-yl)piperidine-4-carbonyl)piperazin-1-yl)-1,3,4-thiadiazol-2-yl)-4-(methylamino)pyridin-2-yl)pyrrolo[1,2-b]pyridazine-3-carbonitrile]
DC50 [1]: > 9980 nM
IC50 [2]: 0.9 nM

CNc1cc(-c2ccc3cc(C#N)cnn23)ncc1-c1nnc(N2CCC(NC(=O)C3CCN(c4cccc5c4C(=O)N(C4CCC(=O)NC4=O)C5=O)CC3)CC2)s1 (centres unmarked) [Example 90, N-(1-(5-(6-(3-cyanopyrrolo[1,2-b]pyridazin-7-yl)-4-(methylamino)pyridin-3-yl)-1,3,4-thiadiazol-2-yl)piperidin-4-yl)-1-(2-(2,6-dioxopiperidin-3-yl)-1,3-dioxoisoindolin-4-yl)piperidine-4-carboxamide]
DC50 [1]: > 9980 nM
IC50 [2]: 0.8 nM

CNc1cc(-c2ccc3cc(C#N)cnn23)ncc1-c1nnc(N2CCN(C[C@H]3CCN(c4ccc5c(c4)n(C)c(=O)n5C4CCC(=O)NC4=O)C3)CC2)s1 (stereo partly drawn) [Example 91, 7-(5-(5-(4-(((3R)-1-(1-(2,6-dioxopiperidin-3-yl)-3-methyl-2-oxo-2,3-dihydro-1H-benzo[d]imidazol-5-yl)pyrrolidin-3-yl)methyl)piperazin-1-yl)-1,3,4-thiadiazol-2-yl)-4-(methylamino)pyridin-2-yl)pyrrolo[1,2-b]pyridazine-3-carbonitrile]
DC50 [1]: > 970 nM
IC50 [2]: 1.6 nM

CNc1cc(-c2ccc3cc(C#N)cnn23)ncc1-c1nnc(N2CCN(C[C@@H]3CCN(c4ccc5c(c4)n(C)c(=O)n5C4CCC(=O)NC4=O)C3)CC2)s1 (stereo partly drawn) [Example 92, 7-(5-(5-(4-(((3S)-1-(1-(2,6-dioxopiperidin-3-yl)-3-methyl-2-oxo-2,3-dihydro-1H-benzo[d]imidazol-5-yl)pyrrolidin-3-yl)methyl)piperazin-1-yl)-1,3,4-thiadiazol-2-yl)-4-(methylamino)pyridin-2-yl)pyrrolo[1,2-b]pyridazine-3-carbonitrile]
DC50 [1]: > 970 nM
IC50 [2]: 1 nM

CNc1cc(-c2ccc3cc(C#N)cnn23)ncc1-c1nnc(N2CCC(NC[C@@H]3CCN(c4ccc5c(c4)n(C)c(=O)n5C4CCC(=O)NC4=O)C3)CC2)s1 (stereo partly drawn) [Example 93, 7-(5-(5-(4-((((3S)-1-(1-(2,6-dioxopiperidin-3-yl)-3-methyl-2-oxo-2,3-dihydro-1H-benzo[d]imidazol-5-yl)pyrrolidin-3-yl)methyl)amino)piperidin-1-yl)-1,3,4-thiadiazol-2-yl)-4-(methylamino)pyridin-2-yl)pyrrolo[1,2-b]pyridazine-3-carbonitrile]
DC50 [1]: > 9980 nM
IC50 [2]: 0.9 nM

CNc1cc(-c2ccc3cc(C#N)cnn23)ncc1-c1nnc(N2CCN(C(=O)CN3CCN(c4ccc5c(c4)C(=O)N(C4CCC(=O)NC4=O)C5=O)CC3)CC2)s1 (centres unmarked) [Example 94, 7-(5-(5-(4-(2-(4-(2-(2,6-dioxopiperidin-3-yl)-1,3-dioxoisoindolin-5-yl)piperazin-1-yl)acetyl)piperazin-1-yl)-1,3,4-thiadiazol-2-yl)-4-(methylamino)pyridin-2-yl)pyrrolo[1,2-b]pyridazine-3-carbonitrile]
Dmax [1]: 113%
DC50 [1]: 321 nM
IC50 [2]: 0.6 nM

CNc1cc(-c2ccc3cc(C#N)cnn23)ncc1-c1nnc(N2CCC(NC(=O)CN3CCN(c4ccc5c(c4)C(=O)N(C4CCC(=O)NC4=O)C5=O)CC3)CC2)s1 (centres unmarked) [Example 95, N-(1-(5-(6-(3-cyanopyrrolo[1,2-b]pyridazin-7-yl)-4-(methylamino)pyridin-3-yl)-1,3,4-thiadiazol-2-yl)piperidin-4-yl)-2-(4-(2-(2,6-dioxopiperidin-3-yl)-1,3-dioxoisoindolin-5-yl)piperazin-1-yl)acetamide]
Dmax [1]: 108%
DC50 [1]: 9.74 nM
IC50 [2]: 0.8 nM
